Data: patent publication EP0610032A1, “Acetanilide derivatives” (ZENECA LIMITED, priority 1993, dated 1994)
pIC50: −log10 of the molar value.

Assays:
5-LO [1] = target: T1, 5-LO (Rattus norvegicus, UniProt P12527); assay: Test c): in vivo zymosan-induced LTB₄ liberation in subcutaneous air pouch of male rats; conditions: oral, 3 hours, read-out: oral ED₅₀(LTB₄)
T1 construct: liberation of LTB₄ induced by zymosan within an air pouch generated within the subcutaneous tissue of the back of male rats; from tissue; host or cells: subcutaneous air pouch of male rats (in vivo)
T1 sequence (P12527 1-673): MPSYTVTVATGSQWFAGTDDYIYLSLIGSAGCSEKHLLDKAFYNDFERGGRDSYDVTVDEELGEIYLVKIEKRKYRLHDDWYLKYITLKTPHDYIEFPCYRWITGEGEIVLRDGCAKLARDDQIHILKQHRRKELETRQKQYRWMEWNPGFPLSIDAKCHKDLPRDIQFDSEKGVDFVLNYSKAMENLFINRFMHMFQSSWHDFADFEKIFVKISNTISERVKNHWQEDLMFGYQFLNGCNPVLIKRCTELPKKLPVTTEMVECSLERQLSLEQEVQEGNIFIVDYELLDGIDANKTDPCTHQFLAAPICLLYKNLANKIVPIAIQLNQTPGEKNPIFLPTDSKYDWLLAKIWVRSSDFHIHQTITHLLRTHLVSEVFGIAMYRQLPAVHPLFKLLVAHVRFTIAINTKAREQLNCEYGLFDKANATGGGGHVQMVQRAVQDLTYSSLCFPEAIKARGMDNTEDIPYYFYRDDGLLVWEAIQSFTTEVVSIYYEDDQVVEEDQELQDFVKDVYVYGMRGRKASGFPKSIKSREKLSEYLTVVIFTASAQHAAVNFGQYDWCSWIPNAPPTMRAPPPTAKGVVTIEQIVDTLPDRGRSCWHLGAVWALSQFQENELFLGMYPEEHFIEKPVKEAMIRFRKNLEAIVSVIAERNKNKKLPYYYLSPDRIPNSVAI
Procedure: This test provides an indication of the bioavailability of a test compound as an inhibitor of 5-LO or cyclooxygenase. • c) An in vivo system involving measuring the effects of a test compound administered orally against the liberation of LTB₄ induced by zymosan within an air pouch generated within the subcutaneous tissue of the back of male rats. The rats are anaesthetised and air pouches are formed by the injection of sterile air (20ml). A further injection of air (10ml) is similarly given after 3 days. At 6 days after the initial air injection the test compound is administered (usually orally as the suspension produced when a solution of the test compound in dimethylsulphoxide is added to hydroxypropylmethylcellulose), followed by the intrapouch injection of zymosan (1ml of a 1% suspension in physiological saline). After 3 hours the rats are killed, the air pouches are lavaged with physiological saline, and the specific radioimmunoassay described above is used to assay LTB₄ in the washings. This test provides an indication of inhibitory effects against 5-LO in an inflammatory milieu.

5-LO [2] = target: T2, 5-LO (Homo sapiens, UniProt P09917); assay: Test a): in vitro heparinised human blood challenged with calcium ionophore A23187, radioimmunoassay of LTB₄; format: cell-based; conditions: A23187 challenge, read-out: IC₅₀ (LTB₄)
T2 construct: incubating a test compound with heparinised human blood, prior to challenge with the calcium ionophore A23187; endogenous in cells; host or cells: heparinised human whole blood (blood cells)
T2 sequence (P09917 1-674): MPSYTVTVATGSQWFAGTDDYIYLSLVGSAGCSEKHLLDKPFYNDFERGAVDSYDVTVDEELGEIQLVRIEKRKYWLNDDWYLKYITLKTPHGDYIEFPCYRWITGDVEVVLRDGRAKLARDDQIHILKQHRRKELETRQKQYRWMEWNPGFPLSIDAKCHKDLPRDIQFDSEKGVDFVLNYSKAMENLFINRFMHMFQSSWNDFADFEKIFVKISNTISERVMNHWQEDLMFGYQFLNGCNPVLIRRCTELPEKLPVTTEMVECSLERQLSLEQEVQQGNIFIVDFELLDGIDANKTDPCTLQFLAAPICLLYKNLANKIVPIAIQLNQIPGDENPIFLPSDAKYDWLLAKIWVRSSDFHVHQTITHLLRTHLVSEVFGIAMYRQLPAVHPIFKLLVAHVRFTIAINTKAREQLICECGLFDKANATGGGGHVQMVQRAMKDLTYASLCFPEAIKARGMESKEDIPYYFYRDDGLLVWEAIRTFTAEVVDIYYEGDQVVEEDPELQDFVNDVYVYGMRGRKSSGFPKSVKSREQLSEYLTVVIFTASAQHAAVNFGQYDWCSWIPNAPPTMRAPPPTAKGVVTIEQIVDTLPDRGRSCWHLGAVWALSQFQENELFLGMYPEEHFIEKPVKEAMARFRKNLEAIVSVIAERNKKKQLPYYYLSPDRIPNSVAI
Excerpt: As stated previously, the compounds of the formula I are inhibitors of the enzyme 5-LO. […] J. Pharmacol., 1985, 84, 34P) which involves the use of a protein-LTB₄ conjugate produced using the procedure of Young et alia (Prostaglandins, 1983, 26(4), 605-613). The effects of a test compound on the enzyme cyclooxygenase (which is involved in the alternative metabolic pathway for arachidonic acid and gives rise to prostaglandins, thromboxanes and related metabolites) may be measured at the same time using the specific radioimmunoassay for thromboxane B₂(TxB₂) described by Carey and Forder (see above). This test provides an indication of the effects of a test compound against 5-LO and also cyclooxygenase in the presence of blood cells and proteins. It permits the selectivity of the inhibitory effect on 5-LO or cyclooxygenase to be assessed. • b) An ex vivo assay system, which is a variation of test a) above, involving administration to a group of rats of a test compound (usually orally as the suspension produced when a solution of the test compound in dimethylsulphoxide is added to carboxymethylcellulose), blood collection, heparinisation, challenge with A23187 and radioimmunoassay of LTB₄ and TxB₂. […]

## CC(=O)N(C)c1ccc(Sc2cc([C@@]3(C)COC(C)(C)O3)cs2)cc1 [Example 1, N-methyl-4'-{4-[(4S)-2,2,4-trimethyl-1,3-dioxolan-4-yl]thien-2-ylthio}acetanilide]
5-LO [1]
  ED50: ~1.5 mg/kg
5-LO [2]
  pIC50: > 7.40

## CC(=O)N(C)c1ccc(Sc2ncc([C@@]3(C)COC(C)(C)O3)s2)cc1 [Example 2, N-methyl-4'-{5-[(4R)-2,2,4-trimethyl-1,3-dioxolan-4-yl]thiazol-2-ylthio}acetanilide]
5-LO [2]
  pIC50: 7.15
